According to US12077503B2, “Substituted cyclic amides and their use as herbicides” (FMC CORPORATION, priority 2015, dated 2024):

Key:
Format in all cases: in vivo
[1] = test system: ragweed (common ragweed, Ambrosia elatior); test: Test A postemergence; conditions: Ambrosia artemisiifolia, post-emergence, 240 h; for pest or weed control at 125 g/ha: 125 g ai/ha, postemergence, visual injury on 0 to 100 scale (0 no effect, 100 complete control), approx. 10 d, read-out: Ragweed plant response rating; for pest or weed control at 31 g/ha: Postemergence, 31 g ai/ha, visual injury after approx. 10 d, 0 to 100 scale, 0 no effect, 100 complete control, read-out: Plant response rating, Ragweed
Method in brief: (§1)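 Compounds were formulated in a non-phytotoxic solvent mixture with surfactant and applied as a preemergence directed soil spray after seeding, or sprayed postemergence over plants 2 to 10 cm tall at the one- to two-leaf stage. Evaluation after about 10 d compared treated with untreated controls, using a scale from 0 (no effect) to 100 (complete control).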

Kochia (Kochia scoparia) [2] = test: Test A postemergence; conditions: Bassia scoparia, post-emergence, 240 h; for pest or weed control at 125 g/ha: 125 g ai/ha, postemergence, visual injury on 0 to 100 scale (0 no effect, 100 complete control), approx. 10 d, read-out: Kochia plant response rating; for pest or weed control at 31 g/ha: Postemergence, 31 g ai/ha, visual injury after approx. 10 d, 0 to 100 scale, 0 no effect, 100 complete control, read-out: Plant response rating, Kochia
Method in brief: as §1

[3] = test system: ryegrass, Italian (Italian ryegrass, Lolium multiflorum); test: Test A postemergence; conditions: Lolium multiflorum, post-emergence, 240 h; for pest or weed control at 125 g/ha: 125 g ai/ha, postemergence, visual injury on 0 to 100 scale (0 no effect, 100 complete control), approx. 10 d, read-out: Ryegrass, Italian plant response rating; for pest or weed control at 31 g/ha: Postemergence, 31 g ai/ha, visual injury after approx. 10 d, 0 to 100 scale, 0 no effect, 100 complete control, read-out: Plant response rating, Ryegrass, Italian
Method in brief: as §1

[4] = test system: wheat (Triticum aestivum); test: Test A postemergence; conditions: Triticum aestivum, post-emergence, 240 h; for plant injury at 125 g/ha: 125 g ai/ha, postemergence, visual injury on 0 to 100 scale (0 no effect, 100 complete control), approx. 10 d, read-out: Wheat plant response rating; for plant injury at 31 g/ha: Postemergence, 31 g ai/ha, visual injury after approx. 10 d, 0 to 100 scale, 0 no effect, 100 complete control, read-out: Plant response rating, Wheat
Method in brief: as §1

[5] = test system: giant foxtail (Setaria faberii); test: Test A postemergence; conditions: Setaria faberi, post-emergence, 240 h; for pest or weed control at 125 g/ha: 125 g ai/ha, postemergence, visual injury on 0 to 100 scale (0 no effect, 100 complete control), approx. 10 d, read-out: Foxtail, Giant plant response rating; for pest or weed control at 31 g/ha: Postemergence, 31 g ai/ha, visual injury after approx. 10 d, 0 to 100 scale, 0 no effect, 100 complete control, read-out: Plant response rating, Foxtail, Giant
Method in brief: as §1

corn (Zea mays) = test: Test A postemergence; conditions: Zea mays, post-emergence, 240 h; for plant injury at 125 g/ha: 125 g ai/ha, postemergence, visual injury on 0 to 100 scale (0 no effect, 100 complete control), approx. 10 d, read-out: Corn plant response rating; for Corn plant response rating (crop injury, 0 = no effect, 100 = complete kill) at 31 g/ha: Postemergence, 31 g ai/ha, visual injury after approx. 10 d, 0 to 100 scale, 100 complete control
Method in brief: as §1

[6] = test system: Galium (catchweed bedstraw, Galium aparine); test: Test A postemergence; conditions: Galium, post-emergence, 240 h; for pest or weed control at 125 g/ha: 125 g ai/ha, postemergence, visual injury on 0 to 100 scale (0 no effect, 100 complete control), approx. 10 d, read-out: Galium plant response rating; for pest or weed control at 31 g/ha: Postemergence, 31 g ai/ha, visual injury after approx. 10 d, 0 to 100 scale, 0 no effect, 100 complete control, read-out: Plant response rating, Galium
Method in brief: as §1

[7] = test system: blackgrass (Alopecurus myosuroides); test: Test A postemergence; conditions: Alopecurus myosuroides, post-emergence, 240 h; for pest or weed control at 125 g/ha: 125 g ai/ha, postemergence, visual injury on 0 to 100 scale (0 no effect, 100 complete control), approx. 10 d, read-out: Blackgrass plant response rating; for pest or weed control at 31 g/ha: Postemergence, 31 g ai/ha, visual injury after approx. 10 d, 0 to 100 scale, 0 no effect, 100 complete control, read-out: Plant response rating, Blackgrass
Method in brief: as §1

[8] = test system: barnyardgrass (Echinochloa crus-galli); test: Test A postemergence; conditions: Echinochloa crus-galli, post-emergence, 240 h; for pest or weed control at 125 g/ha: 125 g ai/ha, postemergence, visual injury on 0 to 100 scale (0 no effect, 100 complete control), approx. 10 d, read-out: Barnyardgrass plant response rating; for pest or weed control at 31 g/ha: Postemergence, 31 g ai/ha, visual injury after approx. 10 d, 0 to 100 scale, 0 no effect, 100 complete control, read-out: Plant response rating, Barnyardgrass
Method in brief: as §1

[9] = test system: pigweed (Amaranthus retroflexus); test: Test A postemergence; conditions: Amaranthus retroflexus, post-emergence, 240 h; for pest or weed control at 125 g/ha: 125 g ai/ha, postemergence, visual injury on 0 to 100 scale (0 no effect, 100 complete control), approx. 10 d, read-out: Pigweed plant response rating; for pest or weed control at 31 g/ha: Postemergence, 31 g ai/ha, visual injury after approx. 10 d, 0 to 100 scale, 0 no effect, 100 complete control, read-out: Plant response rating, Pigweed
Method in brief: as §1

rice (Oryra sativa) = test: Test B flooded paddy test; conditions: Oryza sativa, 250 g ai/ha, Flood; 0 to 100 scale where 0 is no effect and 100 is complete control; read-out: Rice plant response rating
Method in brief: (§2)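 Greenhouse paddy pots with 2-leaf stage plants received compound by direct addition to floodwater 3 cm deep, kept at that level. Scored visually at 13–15 d versus controls (0 no effect; 100 complete control).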

[10] = test system: sedge, umbrella (small-flower umbrella sedge, Cyperus difformis); test: Test B flooded paddy test; conditions: Cyperus difformis, 250 g ai/ha, Flood; 0 to 100 scale where 0 is no effect and 100 is complete control; read-out: Sedge, Umbrella plant response rating
Method in brief: as §2

[11] = test system: ducksalad (Heteranthera limosa); test: Test B flooded paddy test; conditions: Heteranthera limosa, 250 g ai/ha, Flood; 0 to 100 scale where 0 is no effect and 100 is complete control; read-out: Ducksalad plant response rating
Method in brief: as §2

[12] = test system: barnyardgrass (Echinochloa crus-galli); test: Test B flooded paddy test; conditions: Echinochloa crus-galli, 250 g ai/ha, Flood; 0 to 100 scale where 0 is no effect and 100 is complete control; read-out: Barnyardgrass plant response rating
Method in brief: as §2

[13] = test system: ragweed (common ragweed, Ambrosia elatior); test: Test A preemergence; conditions: Ambrosia artemisiifolia, pre-emergence, 240 h, 0 to 100 scale where 0 is no effect and 100 is complete control, read-out: Ragweed plant response rating; for pest or weed control at 31 g/ha: 31 g ai/ha, Preemergence; for pest or weed control at 125 g/ha: 125 g ai/ha, preemergence, approx. 10 d
Method in brief: as §1

Kochia (Kochia scoparia) [14] = test: Test A preemergence; conditions: Bassia scoparia, pre-emergence, 240 h, 0 to 100 scale where 0 is no effect and 100 is complete control, read-out: Kochia plant response rating; for pest or weed control at 31 g/ha: 31 g ai/ha, Preemergence; for pest or weed control at 125 g/ha: 125 g ai/ha, preemergence, approx. 10 d
Method in brief: as §1

[15] = test system: ryegrass, Italian (Italian ryegrass, Lolium multiflorum); test: Test A preemergence; conditions: Lolium multiflorum, pre-emergence, 240 h, 0 to 100 scale where 0 is no effect and 100 is complete control, read-out: Ryegrass, Italian plant response rating; for pest or weed control at 31 g/ha: 31 g ai/ha, Preemergence; for pest or weed control at 125 g/ha: 125 g ai/ha, preemergence, approx. 10 d
Method in brief: as §1

[16] = test system: giant foxtail (Setaria faberii); test: Test A preemergence; conditions: Setaria faberi, pre-emergence, 240 h, 0 to 100 scale where 0 is no effect and 100 is complete control, read-out: Foxtail, Giant plant response rating; for pest or weed control at 31 g/ha: 31 g ai/ha, Preemergence; for pest or weed control at 125 g/ha: 125 g ai/ha, preemergence, approx. 10 d
Method in brief: as §1

[17] = test system: barnyardgrass (Echinochloa crus-galli); test: Test A preemergence; conditions: Echinochloa crus-galli, pre-emergence, 240 h, 0 to 100 scale where 0 is no effect and 100 is complete control, read-out: Barnyardgrass plant response rating; for pest or weed control at 31 g/ha: 31 g ai/ha, Preemergence; for pest or weed control at 125 g/ha: 125 g ai/ha, preemergence, approx. 10 d
Method in brief: as §1

[18] = test system: pigweed (Amaranthus retroflexus); test: Test A preemergence; conditions: Amaranthus retroflexus, pre-emergence, 240 h, 0 to 100 scale where 0 is no effect and 100 is complete control, read-out: Pigweed plant response rating; for pest or weed control at 31 g/ha: 31 g ai/ha, Preemergence; for pest or weed control at 125 g/ha: 125 g ai/ha, preemergence, approx. 10 d

O=C1NC[C@H](c2ccc(C(F)(F)F)cn2)[C@H]1C(=O)Nc1ccc(F)c(F)c1F [Compound 1105]
50%: pest or weed control at 125 g/ha [5] | pest or weed control at 250 g/ha [12]
30%: pest or weed control at 31 g/ha [6] | pest or weed control at 125 g/ha [8] | pest or weed control at 31 g/ha [17]
70%: pest or weed control at 125 g/ha (Kochia (Kochia scoparia) [14])
20%: pest or weed control at 125 g/ha (Kochia (Kochia scoparia) [2]) | pest or weed control at 250 g/ha (rice (Oryra sativa)) | pest or weed control at 125 g/ha [13] | pest or weed control at 31 g/ha [16]
60%: pest or weed control at 125 g/ha [17]
100%: pest or weed control at 250 g/ha [11]
90%: pest or weed control at 125 g/ha [16]
40%: pest or weed control at 125 g/ha [6]
0%: pest or weed control at 125 g/ha [1] | pest or weed control at 31 g/ha [1] | pest or weed control at 31 g/ha (Kochia (Kochia scoparia) [2]) | pest or weed control at 125 g/ha [3] | pest or weed control at 31 g/ha [3] | plant injury at 125 g/ha [4] | plant injury at 31 g/ha [4] | pest or weed control at 31 g/ha [5] | plant injury at 125 g/ha (corn (Zea mays)) | Corn plant response rating (crop injury, 0 = no effect, 100 = complete kill) at 31 g/ha (corn (Zea mays)) | pest or weed control at 125 g/ha [7] | pest or weed control at 31 g/ha [7] | pest or weed control at 31 g/ha [8] | pest or weed control at 125 g/ha [9] | pest or weed control at 31 g/ha [9] | pest or weed control at 250 g/ha [10] | pest or weed control at 31 g/ha [13] | pest or weed control at 31 g/ha (Kochia (Kochia scoparia) [14]) | pest or weed control at 31 g/ha [15] | pest or weed control at 125 g/ha [15] | pest or weed control at 31 g/ha [18] | pest or weed control at 125 g/ha [18]

CN1C[C@H](c2ccc(C(F)(F)F)nc2)[C@@](C)(C(=O)Nc2ccc(F)c(F)c2F)C1=O [Compound 1110]
70%: pest or weed control at 125 g/ha (Kochia (Kochia scoparia) [2]) | plant injury at 125 g/ha [4] | pest or weed control at 125 g/ha (Kochia (Kochia scoparia) [14])
0%: pest or weed control at 31 g/ha [1] | pest or weed control at 31 g/ha [7] | pest or weed control at 250 g/ha [10] | pest or weed control at 31 g/ha [13] | pest or weed control at 31 g/ha (Kochia (Kochia scoparia) [14])
30%: pest or weed control at 125 g/ha [1] | pest or weed control at 31 g/ha (Kochia (Kochia scoparia) [2]) | plant injury at 31 g/ha [4] | Corn plant response rating (crop injury, 0 = no effect, 100 = complete kill) at 31 g/ha (corn (Zea mays)) | pest or weed control at 31 g/ha [15]
80%: plant injury at 125 g/ha (corn (Zea mays)) | pest or weed control at 31 g/ha [8]
60%: pest or weed control at 125 g/ha [3] | pest or weed control at 31 g/ha [5] | pest or weed control at 125 g/ha [7] | pest or weed control at 31 g/ha [18]
90%: pest or weed control at 125 g/ha [5] | pest or weed control at 125 g/ha [8] | pest or weed control at 250 g/ha [12] | pest or weed control at 31 g/ha [16] | pest or weed control at 31 g/ha [17] | pest or weed control at 125 g/ha [18]
40%: pest or weed control at 31 g/ha [3] | pest or weed control at 125 g/ha [13]
50%: pest or weed control at 125 g/ha [6] | pest or weed control at 125 g/ha [9] | pest or weed control at 250 g/ha (rice (Oryra sativa)) | pest or weed control at 125 g/ha [15]
100%: pest or weed control at 250 g/ha [11] | pest or weed control at 125 g/ha [16] | pest or weed control at 125 g/ha [17]
20%: pest or weed control at 31 g/ha [6] | pest or weed control at 31 g/ha [9]
